In one series the test system is C4-2 (PSMA+) cells. The series is described as follows: In vitro cytotoxicity assay (CCK8 viability), C4-2 cells. The series is classed as cell-based. The conditions noted are these: Table 5, payloads only; for IC50: read-out: C4-2 IC50. Here is the method:
In this Example, the ability of various antibody-drug conjugates or their associated payloads to kill antigen-expressing tumor cells in vitro was assessed.
Ovcar3 (Muc16+) or C4-2 (PSMA+) cells were seeded in 96 well plates at 3000 (C42) cells per well in complete growth media and grown overnight. For cell viability curves, serially diluted conjugates or payloads were added to the cells at final concentrations ranging from 300 nM to 5 pM and incubated for 3 days. To measure viability, cells were incubated with CCK8 (Dojindo) for the final 1-3 hours and the absorbance at 450 nm (OD450) was determined on a Victor (Perkin Elmer). Background OD450 levels determined from digitonin ([…]) treated cells were subtracted from all wells and viability is expressed as a percentage of the untreated controls. IC50 values were determined from a four-parameter logistic equation over a 10-point response curve (GraphPad Prism). All conjugate curves and IC50 values are corrected for payload equivalents.

Series [1] concerns T47D ductal carcinoma line (PRLR+). The series can be described thus: In vitro cytotoxicity assay (CellTiter-Glo), T47D cells. Conditions: for IC50: 5 days. The series is classed as cell-based, human. Here is the method:
The present example provides cytotoxicity assays for conjugates provided herein. To evaluate the ability of anti-PRLR antibodies conjugated with 63, 60, 77, and 78 to kill a PRLR expressing cell line, an in vitro cytotoxicity assay using a T47D ductal carcinoma line (ATCC, #HTB-133), which was previously determined to express >27,000 copies of human PRLR at its cell surface, was utilized.
For the assay, T47D cells were seeded onto white 96 well plates at 2,000 cells/well in media containing DMEM supplemented with 10% FBS, NEAA, and pencillin/streptomycinin (complete media). They were grown overnight at 37° C. in 5% CO2. To determine cell viability curves, the following day antibody drug conjugates, unconjugated antibodies, or free payloads were added to the cells at final serial dilutions ranging from 100 nM to 0.01 nM in complete medium and then incubated for an additional 5 days. Luciferase activity was detected after the addition of CellTiter-Glo™ reagent (Promega, G7571) to each well, which contains reagents to lyse the remaining viable cells to release their ATP, ATPase inhibitors to prevent degradation of the ATP, as well as luciferin and luciferase to catalyse the luminescent reaction. Viable cells prior to addition of CellTiter-Glo will be the only source of ATP since the dead cells in culture will not synthesis ATP and any of their released ATP will be destroyed via endogenous ATPases. Relative light units (RLUs) were measured on a Victor luminometer (PerkinElmer) and the results were determined using a four-parameter logistic equation over a 10-point response curve (GraphPad Prism). All measured values and calculated IC50 values were corrected for payload equivalents. All IC50 values are expressed in nM concentration and percent kill is reported for the highest concentration tested.
(In ATP-based viability assays light output follows the ATP content of the culture.)

Setting [2] is: Table 5, payloads only, read-out: T47D IC50.
Where [3] appears, read: Table 5, payloads only, highest concentration tested.

Like-named read-outs stand apart in the source and are kept apart here.

Take `COc1cc2cc(c1Cl)N(C)C(=O)C[C@H](OC(=O)[C@H](C)N(C)C(=O)c1ccc(N)c(S(C)(=O)=O)c1)[C@]1(C)O[C@H]1[C@H](C)[C@@H]1C[C@@](O)(NC(=O)O1)[C@H](OC)/C=C/C=C(\C)C2` [Compound 80, Maytansin-N-methyl-L-alanine-N-(3-methylsulfonyl-4-amino)benzamide]: in the series with C4-2 (PSMA+) cells, the C4-2 % kill is on record as 91% and the IC50 – broadly, the midpoint of a concentration-inhibition curve – worked out at 1.3 nM.
As to `COc1cc2cc(c1Cl)N(C)C(=O)CC(OC(=O)C(C)N(C)C(=O)c1ccc(N)c(C)c1)C1(C)OC1C(C)C1CC(O)(NC(=O)O1)C(OC)C=CC=C(C)C2` [Compound 53, Maytansin-N-methyl-L-alanine-(3-methyl-4-amino)benzamide], in series [1] (setting [2]), the IC50 came out at 0.2 nM. The T47D % kill in series [1] (setting [3]) was found to be 72%.
The like results for `COc1cc2cc(c1Cl)N(C)C(=O)C[C@H](OC(=O)[C@H](C)N(C)C(=O)c1ccc(N)c3ncccc13)[C@]1(C)O[C@H]1[C@H](C)[C@@H]1C[C@@](O)(NC(=O)O1)[C@H](OC)/C=C/C=C(\C)C2` [Compound 55, Maytansin-N-methyl-L-alanine-(8-amino-5-carboxyquinoline)carboxamide] were, in that order, 0.18 nM and 75%.
Take `COc1cc2cc(c1Cl)N(C)C(=O)C[C@H](OC(=O)[C@H](C)N(C)C(=O)c1ccc(N)c(Br)c1)[C@]1(C)O[C@H]1[C@H](C)[C@@H]1C[C@@](O)(NC(=O)O1)[C@H](OC)/C=C/C=C(\C)C2` [Compound 47, Maytansin-N-methyl-L-alanine-(3-bromo-4-amino)benzamide]: the IC50 in series [1] (setting [2]) is 0.01 nM. In series [1] (setting [3]), this molecule registered a T47D % kill of 72%.
For the molecule `COc1cc(C(=O)N(C)[C@@H](C)C(=O)O[C@H]2CC(=O)N(C)c3cc(cc(OC)c3Cl)C/C(C)=C/C=C/[C@@H](OC)[C@@]3(O)C[C@H](OC(=O)N3)[C@@H](C)[C@@H]3O[C@@]23C)ccc1N` [Compound 49, Maytansin-N-methyl-L-alanine-(3-methoxy-4-amino)benzamide], the IC50 was 0.03 nM in series [1] (corrected for payload equivalents, read-out: IC50 (cytotoxicity of T47D cells)) and 0.06 nM in series [1] (setting [2]). In series [1] (T47D cells, highest concentration tested), this molecule showed a maximum percent killing of 69%. Moreover, the T47D % kill in series [1] (setting [3]) is recorded as 70%.
Regarding `COc1cc2cc(c1Cl)N(C)C(=O)C[C@H](OC(=O)[C@H](C)N(C)C(=O)c1ccc(N)c(Cl)c1)[C@]1(C)O[C@H]1[C@H](C)[C@@H]1C[C@@](O)(NC(=O)O1)[C@H](OC)/C=C/C=C(\C)C2` [Compound 43, Maytansin-N-methyl-L-alanine-(3-chloro-4-amino)benzamide], the concentration for half-maximal inhibition (IC50) in series [1] (setting [2]) is 0.01 nM. Moreover, the T47D % kill in series [1] (setting [3]) turned out to be 71%.
Consider `COc1cc2cc(c1Cl)N(C)C(=O)CC(OC(=O)C(C)N(C)C(=O)c1ccc(N)c(O)c1)C1(C)OC1C(C)C1CC(O)(NC(=O)O1)C(OC)C=CC=C(C)C2` [Compound 82, Maytansin-N-methyl-L-alanine-N-(3-hydroxy-4-amino)benzamide], for which, in the series with C4-2 (PSMA+) cells, the C4-2 % kill is reported as 93% and the IC50 was determined as 19.9 nM.
`COc1cc2cc(c1Cl)N(C)C(=O)CC(OC(=O)C(C)N(C)C(=O)c1cc(N)ccc1F)C1(C)OC1C(C)C1CC(O)(NC(=O)O1)C(OC)C=CC=C(C)C2` [Compound 71, Maytansin-N-methyl-L-alanine-N-(2-fluoro-5-amino)benzamide]: the 50% inhibitory concentration (IC50) in series [1] (setting [2]) came out at 0.73 nM. This molecule had a T47D % kill in series [1] (setting [3]) of 68%.
The like results for `COc1cc2cc(c1Cl)N(C)C(=O)C[C@H](OC(=O)[C@H](C)N(C)C(=O)c1cccc(N)c1)[C@]1(C)O[C@H]1[C@H](C)[C@@H]1C[C@@](O)(NC(=O)O1)[C@H](OC)/C=C/C=C(\C)C2` [Compound 73, Maytansin-N-methyl-L-alanine-N-(3-amino)benzamide] were, in that order, 0.57 nM and 73%.
For the molecule `COc1ccc(C(=O)N(C)[C@@H](C)C(=O)O[C@H]2CC(=O)N(C)c3cc(cc(OC)c3Cl)C/C(C)=C/C=C/[C@@H](OC)[C@@]3(O)C[C@H](OC(=O)N3)[C@@H](C)[C@@H]3O[C@@]23C)c(N)c1` [Compound 86, Maytansin-N-methyl-L-alanine-N-(4-methoxy-2-amino)benzamide], in the series on C4-2 (PSMA+) cells, the C4-2 % kill was 90% and the IC50 came to 0.73 nM.
`COc1ccc(N)cc1C(=O)N(C)[C@@H](C)C(=O)O[C@H]1CC(=O)N(C)c2cc(cc(OC)c2Cl)C/C(C)=C/C=C/[C@@H](OC)[C@@]2(O)C[C@H](OC(=O)N2)[C@@H](C)[C@@H]2O[C@@]12C` [Compound 65, Maytansin-N-methyl-L-alanine-N-(2-methoxy-5-amino)benzamide]: the IC50 in series [1] (setting [2]) was found to be 1.13 nM. The same molecule returned a T47D % kill in series [1] (setting [3]) of 72%.
Consider `COc1ccc(C(=O)N(C)[C@@H](C)C(=O)O[C@H]2CC(=O)N(C)c3cc(cc(OC)c3Cl)C/C(C)=C/C=C/[C@@H](OC)[C@@]3(O)C[C@H](OC(=O)N3)[C@@H](C)[C@@H]3O[C@@]23C)cc1N` [Compound 67, Maytansin-N-methyl-L-alanine-N-(3-amino-4-methoxy)benzamide], for which the IC50 in series [1] (setting [2]) was determined as 0.19 nM. The T47D % kill in series [1] (setting [3]) was found to be 71%.
`COc1cc2cc(c1Cl)N(C)C(=O)C[C@H](OC(=O)[C@H](C)N(C)C(=O)c1ccc(N)c(N3CCOCC3)c1)[C@]1(C)O[C@H]1[C@H](C)[C@@H]1C[C@@](O)(NC(=O)O1)[C@H](OC)/C=C/C=C(\C)C2` [Compound 88, Maytansin-N-methyl-L-alanine-N-(3-morpholino-4-amino)benzamide]: in the series with C4-2 (PSMA+) cells, the C4-2 % kill is given as 89% and the IC50 worked out at 0.05 nM.
Take `COc1cc2cc(c1Cl)N(C)C(=O)C[C@H](OC(=O)[C@H](C)N(C)C(=O)c1cc(N)cc(F)c1)[C@]1(C)O[C@H]1[C@H](C)[C@@H]1C[C@@](O)(NC(=O)O1)[C@H](OC)/C=C/C=C(\C)C2` [Compound 69, Maytansin-N-methyl-L-alanine-N-(3-amino-5-fluoro)benzamide]: the IC50 in series [1] (setting [2]) turned out to be 0.39 nM. In series [1] (setting [3]), this molecule yielded a T47D % kill of 73%.
For `COc1cc2cc(c1Cl)N(C)C(=O)C[C@H](OC(=O)[C@H](C)N(C)C(=O)c1cc(F)c(N)cc1F)[C@]1(C)O[C@H]1[C@H](C)[C@@H]1C[C@@](O)(NC(=O)O1)[C@H](OC)/C=C/C=C(\C)C2` [Compound 39, Maytansin-N-methyl-L-alanine-N-(2,5-difluoro-4-amino)benzamide], in series [1] (setting [2]), the half-inhibitory concentration (IC50) stood at 0.02 nM. Also, in series [1] (setting [3]), the T47D % kill is recorded as 70%.
On to `COc1cc2cc(c1Cl)N(C)C(=O)C[C@H](OC(=O)[C@H](C)N(C)C(=O)c1ccccc1N)[C@]1(C)O[C@H]1[C@H](C)[C@@H]1C[C@@](O)(NC(=O)O1)[C@H](OC)/C=C/C=C(\C)C2` [Compound 84, Maytansin-N-methyl-L-alanine-N-(2-amino)benzamide], for which, in the series with C4-2 (PSMA+) cells, the C4-2 % kill came out at 88% and the half-maximal inhibitory concentration (IC50) was found to be 0.07 nM.
As for `COc1cc2cc(c1Cl)N(C)C(=O)C[C@H](OC(=O)[C@H](C)N(C)C(=O)c1ccc(N)c(F)c1)[C@]1(C)O[C@H]1[C@H](C)[C@@H]1C[C@@](O)(NC(=O)O1)[C@H](OC)/C=C/C=C(\C)C2` [Compound 41, Maytansin-N-methyl-L-alanine-(3-fluoro-4-amino)benzamide], the half-inhibitory concentration (IC50) in series [1] (setting [2]) came out at 0.03 nM. The same molecule registered a T47D % kill in series [1] (setting [3]) of 72%.
For `COc1cc2cc(c1Cl)N(C)C(=O)CC(OC(=O)C(C)N(C)C(=O)c1ccc(N)c3cccnc13)C1(C)OC1C(C)C1CC(O)(NC(=O)O1)C(OC)C=CC=C(C)C2` [Compound 45, Maytansin-N-methyl-L-alanine-(5-amino-8-carboxyquinoline)carboxamide], the IC50 in series [1] (setting [2]) was found to be 3.73 nM. The same molecule gave a T47D % kill in series [1] (setting [3]) of 72%.
In the case of `COc1cc2cc(c1Cl)N(C)C(=O)C[C@H](OC(=O)[C@H](C)N(C)C(=O)c1ccc(N)c(NC(C)=O)c1)[C@]1(C)O[C@H]1[C@H](C)[C@@H]1C[C@@](O)(NC(=O)O1)[C@H](OC)/C=C/C=C(\C)C2` [Compound 90, Maytansin-N-methyl-L-alanine-N-(3-acetamido-4-amino)benzamide], in the series with C4-2 (PSMA+) cells, the C4-2 % kill is on record as 86% and the IC50 is over 100 nM.
In the case of `COc1cc2cc(c1Cl)N(C)C(=O)C[C@H](OC(=O)[C@H](C)N(C)C(=O)c1ccc(N)cc1C)[C@]1(C)O[C@H]1[C@H](C)[C@@H]1C[C@@](O)(NC(=O)O1)[C@H](OC)/C=C/C=C(\C)C2` [Compound 51, Maytansin-N-methyl-L-alanine-(2-methyl-4-amino)benzamide], the IC50 in series [1] (setting [2]) was 0.49 nM. The T47D % kill in series [1] (setting [3]) came out at 72%.

For the origin of these results see patent publication US12297207B2, “Maytansinoid derivatives, conjugates thereof, and methods of use” (priority 2015, dated 2025).
